For data set [1], the system named is Puccinia triticina. As to the kind of experiment: Wheat brown rust (PUCCRT) fungicidal activity on wheat seedlings. The class given is in vivo. As for the experimental part:
Technical grades of materials were dissolved in acetone, which were then mixed with nine volumes of water containing 110 ppm Triton X-100. The fungicide solutions were applied onto wheat seedlings using an automated booth sprayer to run-off. All sprayed plants were allowed to air dry prior to further handling. Wheat plants (variety Yuma) were grown from seed in a greenhouse in 50% mineral soil/50% soil-less Metro mix until the first leaf was fully emerged, with 7-10 seedlings per pot. These plants were inoculated with an aqueous spore suspension of Septoria tritici either prior to or after fungicide treatments. After inoculation the plants were kept in 100% relative humidity (one day in a dark dew chamber followed by two to three days in a lighted dew chamber at 20° C.) to permit spores to germinate and infect the leaf. The plants were then transferred to a greenhouse set at 20° C. for disease to develop. When disease symptoms were fully expressed on the 1st leaves of untreated plants, infection levels were assessed on a scale of 0 to 100 percent disease severity. Percent disease control was calculated using the ratio of disease severity on treated plants relative to untreated plants. Evaluation of Fungicidal Activity: Wheat Brown Rust (Puccinia triticina; Synonym: Puccinia recondita f. sp. tritici; Bayer Code PUCCRT) Wheat plants (variety Yuma) were grown from seed in a greenhouse in 50% mineral soil/50% soil-less Metro mix until the first leaf was fully emerged, with 7-10 seedlings per pot. These plants were inoculated with an aqueous spore suspension of Puccinia triticina either prior to or after fungicide treatments. After inoculation the plants were kept in a dark dew room at 22° C. with 100% relative humidity overnight to permit spores to germinate and infect the leaf. The plants were then transferred to a greenhouse set at 24° C. for disease to develop. Fungicide formulation, application and disease assessment followed the procedures as described in the Example A.

Data set [2] relates to Mycosphaerella graminicola; Anamorph: Septoria tritici. As to the kind of experiment: Leaf blotch of wheat (SEPTTR) fungicidal activity on wheat seedlings. The class given is in vivo. The conditions noted are these: Zymoseptoria tritici. As for the experimental part: Evaluation of Fungicidal Activity: Leaf Blotch of Wheat (Mycosphaerella Graminicola; Anamorph: Septoria tritici; Bayer Code […]) Technical grades of materials were dissolved in acetone, which were then mixed with nine volumes of water containing 110 ppm Triton X-100. The fungicide solutions were applied onto wheat seedlings using an automated booth sprayer to run-off. All sprayed plants were allowed to air dry prior to further handling. Wheat plants (variety Yuma) were grown from seed in a greenhouse in 50% mineral soil/50% soil-less Metro mix until the first leaf was fully emerged, with 7-10 seedlings per pot. These plants were inoculated with an aqueous spore suspension of Septoria tritici either prior to or after fungicide treatments. After inoculation the plants were kept in 100% relative humidity (one day in a dark dew chamber followed by two to three days in a lighted dew chamber at 20° C.) to permit spores to germinate and infect the leaf. The plants were then transferred to a greenhouse set at 20° C. for disease to develop. When disease symptoms were fully expressed on the 1st leaves of untreated plants, infection levels were assessed on a scale of 0 to 100 percent disease severity. Percent disease control was calculated using the ratio of disease severity on treated plants relative to untreated plants.

In data set [3] the test system is Puccinia triticina. As to the kind of experiment: Fungicide mobility (dropline mobility test), wheat brown rust (PUCCRT). The conditions noted are these: 1 ug/leaf, disease-free zone as percent of distance from marked line to leaf tip; for Dropline Mobility Test PUCCRT 1 DPM: 1 Day Protectant Mobility; for Dropline Mobility Test PUCCRT 3 DCM: 3 Day Curative Mobility. The format is in vivo. As for the experimental part: Evaluation of Fungicide Mobility: Wheat Brown Rust (Puccinia Triticina; Synonym: Puccinia recondita f. sp. Tritici; Bayer Code PUCCRT):
“Yuma” wheat seedlings were used in the test. One mg of compound was dissolved in 9 μl of EC blank (emulsifiable concentrate) and 500 μl of acetone. Acetone was then evaporated overnight by leaving the vial open in a fume hood. Two milliliters of water containing 110 ppm Triton X-100 was added to each vial to prepare application solutions. A […] drop of formulated material was applied to a marked line on the adaxial surface 5 cm from the leaf tip of the primary leaves. The primary leaves were kept in a horizontal position. Each treatment had 6 replicates. Plants were inoculated with PUCCRT 1-day after (1DPM) or 3-day prior to (3DCM) compound applications. When rust was fully expressed on primary leaves on control plants, the zone of treated leaves that was disease-free in the acropetal direction was measured with a ruler and converted to percent of the distance from marked line to leaf tip.

Setting [4] is: 24 h, 1 Day Protectant, read-out: Disease Control PUCCRT 1 DP.
Setting [5] is: 72 h, 3 Day Curative, read-out: Disease Control PUCCRT 3 DC.
Setting [6] is: 24 h, 1 Day Protectant, read-out: Disease Control SEPTTR 1 DP.
Where [7] appears, read: 72 h, 3 Day Curative, read-out: Disease Control SEPTTR 3 DC.

Here are results for 22 compounds from US8835462B2, “Macrocyclic picolinamides as fungicides” (Dow AgroSciences LLC, priority 2012, dated 2014).

Structures are written as SMILES. Where two headings read alike, the source gives them in different places.

A word on the melting point: it is the temperature of the solid-liquid transition. As to `C[C@@H]1OC(=O)[C@@H](NC(=O)OC(C)(C)C)COC[C@H](Cc2ccccc2)[C@H]1OC(=O)c1ccccc1` [Compound 61], the melting point was in the range of 54 to 63 °C.
Consider `C=C(C)CO[C@@H]1[C@@H](Cc2ccccc2)COC[C@H](NC(=O)c2nccc(OC)c2O)C(=O)O[C@H]1C` [Compound 6], for which the melting point lay within 96 to 104 °C. Besides, the pest or weed control at 100 ppm in the data set on Puccinia triticina [1] (setting [4]) was in the range of 80 to 100%. For the same compound, the pest or weed control at 100 ppm in the data set with Puccinia triticina [1] (setting [5]) fell in the range of 80 to 100%. The pest or weed control at 100 ppm in data set [2] (setting [6]) lay in the range of 80 to 100%. In addition, in data set [2] (setting [7]), the pest or weed control at 100 ppm is 0 to 80%.
In turn, `C[C@@H]1OC(=O)[C@@H](N(C(=O)OC(C)(C)C)C(=O)OC(C)(C)C)COC[C@H](Cc2ccccc2)[C@H]1OCCCC(F)(F)F` [Compound 69] showed a melting point of 100 to 102 °C.
`CCCCCO[C@@H]1[C@@H](Cc2ccccc2)COC[C@H](N(C(=O)OC(C)(C)C)C(=O)OC(C)(C)C)C(=O)O[C@H]1C` [Compound 72]: the melting point was 94 to 97 °C.
In turn, `C=CCO[C@@H]1[C@@H](Cc2ccccc2)COC[C@H](N(C(=O)OC(C)(C)C)C(=O)OC(C)(C)C)C(=O)O[C@H]1C` [Compound 65] displayed a melting point of 88 to 90 °C.
On the same count and under the same terms, the result for `COC(=O)/C=C/O[C@@H]1[C@@H](Cc2ccccc2)COC[C@H](NC(=O)OC(C)(C)C)C(=O)O[C@H]1C` [Compound 49, (E)-methyl 3-(((3S,6S,7R,8S)-8-benzyl-3-((tert-butoxycarbonyl)amino)-6-methyl-4-oxo-1,5-dioxonan-7-yl)oxy)acrylate] reads 128 to 129 °C.
Same read-out and setting: for `C[C@@H]1OC(=O)[C@@H](NC(=O)OC(C)(C)C)COC[C@H](Cc2ccccc2)[C@H]1O` [Compound 48, tert-Butyl-(3S,7S,8R,9S)-7-benzyl-8-hydroxy-9-methyl-2-oxo-1,5-dioxonan-3-ylcarbamate] the value was 62 to 67 °C.
`CCCO[C@@H]1[C@@H](Cc2ccccc2)COC[C@H](N(C(=O)OC(C)(C)C)C(=O)OC(C)(C)C)C(=O)O[C@H]1C` [Compound 68] yielded a melting point of 98 to 100 °C.
The same measure, in the same setting: for `C[C@@H]1OC(=O)[C@@H](N(C(=O)OC(C)(C)C)C(=O)OC(C)(C)C)COC[C@H](Cc2ccccc2)[C@H]1O` [Compound 57, tert-butyl N-[(3S,7S,8R,9S)-7-benzyl-8-hydroxy-9-methyl-2-oxo-1,5-dioxonan-3-yl]-N-tert-butoxycarbonylcarbamate] the value was 139 to 141 °C.
Compound `COc1ccnc(C(=O)N[C@H]2COC[C@H](CC3CCCCC3)[C@@H](OCC(C)C)[C@H](C)OC2=O)c1O` [Compound 4, N-((3S,7S,8R,9S)-7-(cyclohexylmethyl)-8-isobutoxy-9-methyl-2-oxo-1,5-dioxonan-3-yl)-3-hydroxy-4-methoxypicolinamide] showed a melting point of 89 to 92 °C. In addition, the pest or weed control at 100 ppm with Puccinia triticina [1] (setting [4]) is 80 to 100%. Besides, the pest or weed control at 100 ppm in the data set on Puccinia triticina [1] (setting [5]) lay in the range of 80 to 100%. For the same compound, the pest or weed control at 100 ppm in data set [2] (setting [6]) was in the range of 80 to 100%. Further, the pest or weed control at 100 ppm in data set [2] (setting [7]) was in the range of 80 to 100%.
`C[C@@H]1OC(=O)[C@@H](N(C(=O)OC(C)(C)C)C(=O)OC(C)(C)C)COC[C@H](Cc2ccccc2)[C@H]1OC/C=C/C(F)(F)F` [Compound 66]: the melting point fell in the range of 131 to 133 °C.
On the same count and under the same terms, the result for `C=C(C)CO[C@@H]1[C@@H](Cc2ccccc2)COC[C@H](N(C(=O)OC(C)(C)C)C(=O)OC(C)(C)C)C(=O)O[C@H]1C` [Compound 82, tert-butyl N-[(3S,7S,8R,9S)-7-benzyl-9-methyl-8-(2-methylallyloxy)-2-oxo-1,5-dioxonan-3-yl]-N-tert-butoxycarbonylcarbamate] reads 109 to 110 °C.
Consider `COc1ccnc(C(=O)N[C@H]2COC[C@H](Cc3ccccc3)[C@@H](OC)[C@H](C)OC2=O)c1O` [Compound 32], for which the melting point lay in the range of 57 to 70 °C. For the same compound, the pest or weed control at 100 ppm in the data set on Puccinia triticina [1] (setting [4]) is 80 to 100%. Further, in the data set with Puccinia triticina [1] (setting [5]), the pest or weed control at 100 ppm fell in the range of 0 to 80%. Also, the pest or weed control at 100 ppm in data set [2] (setting [6]) lay within 0 to 80%. For the same compound, the pest or weed control at 100 ppm in data set [2] (setting [7]) fell in the range of 80 to 100%. Also, in the data set with Puccinia triticina [3], the “Dropline Mobility Test PUCCRT 1 DPM” value is given as “B (More than 0-Less than 80)” and the “Dropline Mobility Test PUCCRT 3 DCM” value is “B (More than 0-Less than 80)”.
For `CC/C=C/CO[C@@H]1[C@@H](Cc2ccccc2)COC[C@H](N(C(=O)OC(C)(C)C)C(=O)OC(C)(C)C)C(=O)O[C@H]1C` [Compound 71], the melting point lay within 127 to 129 °C.
On the same count and under the same terms, the result for `C[C@@H]1OC(=O)[C@@H](NC(=O)OC(C)(C)C)COC[C@H](Cc2ccccc2)[C@H]1OCCC(=O)N(C)C` [Compound 53, tert-butyl ((3S,7S,8R,9S)-7-benzyl-8-(3-(dimethylamino)-3-oxopropoxy)-9-methyl-2-oxo-1,5-dioxonan-3-yl)carbamate] reads 142 to 143 °C.
Regarding `COc1ccnc(C(=O)N[C@H]2COC[C@H](Cc3ccccc3)[C@@H](OC(=O)c3ccccc3)[C@H](C)OC2=O)c1O` [Compound 30], the pest or weed control at 100 ppm was in the range of 80 to 100% in the data set on Puccinia triticina [1] (setting [4]), 0 to 80% with Puccinia triticina [1] (setting [5]), 0 to 80% in data set [2] (setting [6]) and 0 to 80% in data set [2] (setting [7]). Besides, in the data set on Puccinia triticina [3], the “Dropline Mobility Test PUCCRT 1 DPM” value is “B (More than 0-Less than 80)”.
The compound `COc1ccnc(C(=O)N[C@H]2COC[C@H](Cc3ccccc3)[C@@H](OC(=O)C(C)C)[C@H](C)OC2=O)c1O` [Compound 1] showed a melting point of 66 to 70 °C. In addition, the pest or weed control at 100 ppm in the data set on Puccinia triticina [1] (setting [4]) was 80 to 100%. Further, the pest or weed control at 100 ppm with Puccinia triticina [1] (setting [5]) is 80 to 100%. Further, the pest or weed control at 100 ppm in data set [2] (setting [6]) fell in the range of 80 to 100%. Further, the pest or weed control at 100 ppm in data set [2] (setting [7]) was in the range of 80 to 100%. Moreover, in the data set with Puccinia triticina [3], the “Dropline Mobility Test PUCCRT 1 DPM” value was “B (More than 0-Less than 80)” and the “Dropline Mobility Test PUCCRT 3 DCM” value is given as “B (More than 0-Less than 80)”.
The compound `C/C=C/C(C)O[C@@H]1[C@@H](Cc2ccccc2)COC[C@H](N(C(=O)OC(C)(C)C)C(=O)OC(C)(C)C)C(=O)O[C@H]1C` (stereo partly shown) [Compound 67] gave a melting point of 80 to 83 °C.
Still for that read-out and setting: the result for `C[C@@H]1OC(=O)[C@@H](NC(=O)OC(C)(C)C)COC[C@H](Cc2ccccc2)[C@H]1O/C=C/C(=O)OCc1ccccc1` [Compound 51, (E)-benzyl 3-(((3S,6S,7R,8S)-8-benzyl-3-((tert-butoxycarbonyl)amino)-6-methyl-4-oxo-1,5-dioxonan-7-yl)oxy)acrylate] reads 182 to 185 °C; that for `C[C@@H]1OC(=O)[C@@H](NC(=O)OC(C)(C)C)COC[C@H](Cc2ccccc2)[C@H]1OC(=O)C1CC1` [Compound 62], 72 to 85 °C.
With `COc1ccnc(C(=O)N[C@H]2COC[C@H](Cc3ccccc3)[C@@H](OCCC(C)C)[C@H](C)OC2=O)c1O` [Compound 41], the pest or weed control at 100 ppm in the data set on Puccinia triticina [1] (setting [4]) lay in the range of 80 to 100%; with Puccinia triticina [1] (setting [5]), 0 to 80%; in data set [2] (setting [6]), 0 to 80%; in data set [2] (setting [7]), 0 to 80%. For the same compound, the “Dropline Mobility Test PUCCRT 1 DPM” value in the data set on Puccinia triticina [3] was “B (More than 0-Less than 80)”. For the same compound, in the data set on Puccinia triticina [3], the “Dropline Mobility Test PUCCRT 3 DCM” value is on record as “B (More than 0-Less than 80)”.
As for `COc1ccnc(C(=O)N[C@H]2COC[C@H](Cc3ccccc3)[C@@H](OC/C=C/C(F)(F)F)[C@H](C)OC2=O)c1O` [Compound 20], the pest or weed control at 100 ppm (with Puccinia triticina [1] (setting [4]); with Puccinia triticina [1] (setting [5]); in data set [2] (setting [6]); in data set [2] (setting [7])) was 0 to 80% throughout. In addition, the “Dropline Mobility Test PUCCRT 1 DPM” value in the data set on Puccinia triticina [3] is “B (More than 0-Less than 80)”.
